Reference: PubChem BioAssay AID248 (DTP/NCI, 2004)
Values joined by “and” are separate entries in the source; they are usually repeats but may differ in a detail not shown here. Equal entries are not always repeated. Inconclusive results and toxic doses are left out.

Test system: L1210 leukemia ip in BDF1 mice, survival T/C
Assay: NCI In Vivo Anticancer Drug Screen. Data for tumor model L1210 Leukemia (intraperitoneal) in B6D2F1 (BDF1) mice
Settings: endpoint: mean survival time, higher = longer survival
In short: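 Tumor was transplanted into mice, which were then dosed with test compound or vehicle alone. Survival was recorded for each group, and the treated figure was expressed relative to the control figure.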

[1] = dose: 100.0 mg/kg/injection, schedule: Q01DX009 (ip), vehicle: Klucel (hydroxypropylcellulose) (HPC)
[2] = dose: 200.0 mg/kg/injection, schedule: Q01DX009 (ip), vehicle: Klucel (hydroxypropylcellulose) (HPC)
[3] = dose: 100.0 mg/kg/injection, schedule: Q01DX009 (ip), vehicle: saline with Tween-80
[4] = dose: 200.0 mg/kg/injection, schedule: Q01DX009 (ip), vehicle: saline with Tween-80
[5] = dose: 50.0 mg/kg/injection, schedule: Q01DX009 (ip), vehicle: saline
[6] = dose: 100.0 mg/kg/injection, schedule: Q01DX009 (ip), vehicle: saline
[7] = dose: 100.0 mg/kg/injection, schedule: Q04DX003 (ip), vehicle: saline
[8] = dose: 200.0 mg/kg/injection, schedule: Q01DX009 (ip), vehicle: saline
[9] = dose: 200.0 mg/kg/injection, schedule: Q04DX003 (ip), vehicle: saline
[10] = dose: 100.0 mg/kg/injection, schedule: Q04DX002 (ip), vehicle: Klucel (hydroxypropylcellulose) (HPC)
[11] = dose: 200.0 mg/kg/injection, schedule: Q04DX002 (ip), vehicle: Klucel (hydroxypropylcellulose) (HPC)
[12] = dose: 400.0 mg/kg/injection, schedule: Q04DX002 (ip), vehicle: Klucel (hydroxypropylcellulose) (HPC)
[13] = dose: 400.0 mg/kg/injection, schedule: Q01DX009 (ip), vehicle: Klucel (hydroxypropylcellulose) (HPC)
[14] = dose: 100.0 mg/kg/injection, schedule: Q04DX003 (ip), vehicle: Klucel (hydroxypropylcellulose) (HPC)
[15] = dose: 200.0 mg/kg/injection, schedule: Q04DX003 (ip), vehicle: Klucel (hydroxypropylcellulose) (HPC)
[16] = dose: 400.0 mg/kg/injection, schedule: Q04DX003 (ip), vehicle: Klucel (hydroxypropylcellulose) (HPC)
[17] = dose: 100.0 mg/kg/injection, schedule: Q01DX001 (ip), vehicle: saline
[18] = dose: 200.0 mg/kg/injection, schedule: Q01DX001 (ip), vehicle: saline
[19] = dose: 400.0 mg/kg/injection, schedule: Q01DX001 (ip), vehicle: saline
[20] = dose: 50.0 mg/kg/injection, schedule: Q01DX009 (ip), vehicle: saline with Tween-80
[21] = dose: 25.0 mg/kg/injection, schedule: Q01DX009 (ip), vehicle: saline with Tween-80
[22] = dose: 25.0 mg/kg/injection, schedule: Q04DX002 (ip), vehicle: saline with Tween-80
[23] = dose: 50.0 mg/kg/injection, schedule: Q04DX002 (ip), vehicle: saline with Tween-80

O=C1C(NC(=O)C2CCCCC2)=C(N2CC2)C(=O)C(NC(=O)C2CCCCC2)=C1N1CC1
T/C (dose: 50.0 mg/kg/injection, schedule: Q01DX010 (ip), vehicle: saline): 93 % of control and 101 % of control | T/C (dose: 50.0 mg/kg/injection, schedule: Q01DX Z (ip), vehicle: Klucel (hydroxypropylcellulose) (HPC)): 105 % of control | T/C (dose: 78.0 mg/kg/injection, schedule: Q01DX Z (ip), vehicle: carboxymethylcellulose (CMC)): 115 % of control | T/C (dose: 100.0 mg/kg/injection, schedule: Q01DX010 (ip), vehicle: saline): 101 % of control and 104 % of control | T/C (dose: 100.0 mg/kg/injection, schedule: Q01DX Z (ip), vehicle: Klucel (hydroxypropylcellulose) (HPC)): 109 % of control | T/C (dose: 117.0 mg/kg/injection, schedule: Q01DX Z (ip), vehicle: carboxymethylcellulose (CMC)): 104 % of control | T/C (dose: 175.0 mg/kg/injection, schedule: Q01DX Z (ip), vehicle: carboxymethylcellulose (CMC)): 119 % of control | T/C (dose: 200.0 mg/kg/injection, schedule: Q01DX010 (ip), vehicle: saline): 98 % of control and 115 % of control | T/C (dose: 263.0 mg/kg/injection, schedule: Q01DX Z (ip), vehicle: carboxymethylcellulose (CMC)): 150 % of control | T/C (dose: 400.0 mg/kg/injection, schedule: Q01DX010 (ip), vehicle: saline): 98 % of control and 104 % of control | T/C (dose: 400.0 mg/kg/injection, schedule: Q01DX Z (ip), vehicle: Klucel (hydroxypropylcellulose) (HPC)): 102 % of control | T/C (dose: 440.0 mg/kg/injection, schedule: Q01DX001 (ip), vehicle: carboxymethylcellulose (CMC)): 102 % of control and 119 % of control | T/C (dose: 670.0 mg/kg/injection, schedule: Q01DX001 (ip), vehicle: carboxymethylcellulose (CMC)): 103 % of control and 91 % of control | T/C (dose: 1000.0 mg/kg/injection, schedule: Q01DX001 (ip), vehicle: carboxymethylcellulose (CMC)): 101 % of control and 103 % of control

O=c1cc(O)c2ccccc2o1
T/C (dose: 50.0 mg/kg/injection, schedule: Q01DX009 (ip), vehicle: Klucel (hydroxypropylcellulose) (HPC)): 104 % of control | T/C [1]: 93 % of control | T/C [2]: 90 % of control

S=c1[nH]c2ccccc2o1
T/C [3]: 93 % of control | T/C (dose: 100.0 mg/kg/injection, schedule: Q04DX003 (ip), vehicle: other): 101 % of control | T/C [4]: 100 % of control | T/C (dose: 200.0 mg/kg/injection, schedule: Q04DX003 (ip), vehicle: other): 93 % of control | T/C (dose: 400.0 mg/kg/injection, schedule: Q04DX003 (ip), vehicle: other): 96 % of control

O=C1CNC(=O)N1
T/C [5]: 105 % of control | T/C [6]: 107 % of control | T/C [7]: 94 % of control | T/C [8]: 96 % of control | T/C [9]: 100 % of control | T/C (dose: 400.0 mg/kg/injection, schedule: Q01DX009 (ip), vehicle: saline): 96 % of control | T/C (dose: 400.0 mg/kg/injection, schedule: Q04DX003 (ip), vehicle: saline): 98 % of control

CC(=O)Nc1ccc(CCCCc2cccc(C#N)c2)cc1
T/C [5]: 95 % of control | T/C [6]: 100 % of control | T/C [8]: 97 % of control

CC(C)=C1N=C(c2ccccc2)OC1=O
T/C [10]: 97 % of control | T/C [11]: 111 % of control | T/C [12]: 111 % of control

Cc1cc2c(cc1C)/C(=N/O)CCC2
T/C [1]: 100 % of control | T/C [2]: 101 % of control | T/C [13]: 101 % of control

CC1CC(C#N)C(CCC#N)CC1C (stereo unspecified)
T/C [1]: 104 % of control | T/C [14]: 93 % of control | T/C [2]: 106 % of control | T/C [15]: 102 % of control | T/C [16]: 100 % of control

COC(=O)c1ccc(C(=O)OC)c(=O)[nH]1
T/C [1]: 109 % of control | T/C [14]: 103 % of control | T/C [2]: 101 % of control | T/C [15]: 102 % of control | T/C [13]: 102 % of control | T/C [16]: 97 % of control

O=C(O)CN1C(=O)CNC12CCCCC2
T/C [17]: 95 % of control | T/C [18]: 101 % of control | T/C [19]: 97 % of control

Oc1ccc(C2CC3CCC2C3)cc1 (stereo unspecified)
T/C (dose: 100.0 mg/kg/injection, schedule: Q04DX003 (ip), vehicle: saline + alcohol): 98 % of control | T/C (dose: 200.0 mg/kg/injection, schedule: Q04DX003 (ip), vehicle: saline + alcohol): 90 % of control | T/C (dose: 400.0 mg/kg/injection, schedule: Q04DX003 (ip), vehicle: saline + alcohol): 96 % of control

Cc1[nH]c2ccccc2c1C1=CC(=O)c2ccccc2C1=O
T/C [17]: 93 % of control | T/C [18]: 112 % of control | T/C [19]: 98 % of control

COC(=O)C(NC(=O)C(NC(=O)Cc1ccccc1)SCc1ccccc1)=C(C)C (stereo unspecified)
T/C [7]: 95 % of control | T/C [9]: 89 % of control

CN(CCNC(=O)C1C(c2ccccc2)C1c1ccccc1)C(=O)C1C(c2ccccc2)C1c1ccccc1 (stereo unspecified)
T/C [10]: 95 % of control | T/C [11]: 89 % of control | T/C [12]: 89 % of control

C/[N+]([O-])=N\Nc1c(Br)cc(Br)cc1Br
T/C [20]: 105 % of control | T/C [3]: 102 % of control | T/C [4]: 105 % of control

CCOC(=O)c1ccc(NC(=O)Nc2ccc(NC(C)=O)cc2)cc1
T/C [21]: 89 % of control | T/C [22]: 86 % of control | T/C (dose: 25.0 mg/kg/injection, schedule: Q04DX003 (ip), vehicle: saline with Tween-80): 88 % of control | T/C (dose: 50.0 mg/kg/injection, schedule: Q01DX001 (ip), vehicle: saline with Tween-80): 88 % of control | T/C [20]: 89 % of control | T/C [23]: 86 % of control and 88 % of control | T/C (dose: 50.0 mg/kg/injection, schedule: Q04DX003 (ip), vehicle: saline with Tween-80): 86 % of control | T/C (dose: 100.0 mg/kg/injection, schedule: Q01DX001 (ip), vehicle: saline with Tween-80): 88 % of control | T/C [3]: 91 % of control | T/C (dose: 200.0 mg/kg/injection, schedule: Q01DX001 (ip), vehicle: saline with Tween-80): 93 % of control | T/C [4]: 91 % of control | T/C (dose: 200.0 mg/kg/injection, schedule: Q04DX002 (ip), vehicle: saline with Tween-80): 99 % of control | T/C (dose: 200.0 mg/kg/injection, schedule: Q04DX003 (ip), vehicle: saline with Tween-80): 90 % of control | T/C (dose: 400.0 mg/kg/injection, schedule: Q04DX002 (ip), vehicle: saline with Tween-80): 106 % of control

c1ccc2nc(CCC3CCCCN3)ccc2c1 (stereo unspecified)
T/C (dose: 333.0 mg/kg/injection, schedule: Q01DX Z (ip), vehicle: methylcellulose (MC)): 101 % of control

CCCCCc1cnc(NCCCC(N)C(=O)O)nc1 (stereo unspecified)
T/C [22]: 95 % of control | T/C [23]: 95 % of control | T/C (dose: 100.0 mg/kg/injection, schedule: Q04DX002 (ip), vehicle: saline with Tween-80): 95 % of control

Cn1nc2ccccc2n1
T/C [21]: 97 % of control | T/C [20]: 106 % of control | T/C [3]: 100 % of control | T/C (dose: 100.0 mg/kg/injection, schedule: Q04DX003 (ip), vehicle: saline with Tween-80): 116 % of control

CC1(C)[C@@H]2CC[C@]1(C)[C@@H](O)C2
T/C (dose: 100.0 mg/kg/injection, schedule: Q01DX001 (ip), vehicle: Klucel (hydroxypropylcellulose) (HPC)): 104 % of control | T/C [14]: 102 % of control | T/C (dose: 200.0 mg/kg/injection, schedule: Q01DX001 (ip), vehicle: Klucel (hydroxypropylcellulose) (HPC)): 96 % of control | T/C [15]: 102 % of control | T/C (dose: 400.0 mg/kg/injection, schedule: Q01DX001 (ip), vehicle: Klucel (hydroxypropylcellulose) (HPC)): 93 % of control | T/C [16]: 97 % of control

CC(=O)NC(C)c1ccccc1 (stereo unspecified)
T/C (dose: 50.0 mg/kg/injection, schedule: Q04DX002 (ip), vehicle: Klucel (hydroxypropylcellulose) (HPC)): 108 % of control | T/C (dose: 75.0 mg/kg/injection, schedule: Q01DX009 (ip), vehicle: Klucel (hydroxypropylcellulose) (HPC)): 96 % of control | T/C [10]: 108 % of control | T/C (dose: 150.0 mg/kg/injection, schedule: Q01DX009 (ip), vehicle: Klucel (hydroxypropylcellulose) (HPC)): 89 % of control | T/C [11]: 108 % of control | T/C (dose: 300.0 mg/kg/injection, schedule: Q01DX009 (ip), vehicle: Klucel (hydroxypropylcellulose) (HPC)): 100 % of control | T/C [12]: 111 % of control
